Results: PMC1079869 (BMC Neuroscience, 2005)
“Also recorded” adds a separate entry of the source.

Legend:
pain = test system: pain; parameters: method as in 5 sources, ref 1 = [1]; PMID 3865193; doi:10.1073/pnas.82.22.7757; Yang H-YT Fratta W Majane EA Costa E Isolation, sequencing, synthesis, and pharmacological characterization of two brain neuropeptides that modulate the action of morphine Proc Natl Acad Sci U S A 198 ||| ref 4 = [4]; PMID 8821539; doi:10.1111/j.1476-5381.1996.tb15217.x; Gouarderes C Jhamandas K Sutak M Zajac JM Role of opioid receptors in the spinal antinociceptive effects of neuropeptide FF analogues Br J Pharmacol 1996 117 493 501 8821539 10.1111/j.1476-5381.1996.t ||| ref 44 = [44]; PMID 10499424; doi:10.1016/S0196-9781(99)00100-X; Xu M Kontinen VK Panula P Kalso E Effects of (1DMe)NPYF, a synthetic neuropeptide FF analogue, in different pain models Peptides 1999 20 1211 1217 10499424 10.1016/S0196-9781(99)00100-X ||| ref 4, 44 = [4]; PMID 8821539; doi:10.1111/j.1476-5381.1996.tb15217.x; Gouarderes C Jhamandas K Sutak M Zajac JM Role of opioid receptors in the spinal antinociceptive effects of neuropeptide FF analogues Br J Pharmacol 1996 117 493 501 8821539 10.1111/j.1476-5381.1996.t || [44]; PMID 10499424; doi:10.1016/S0196-9781(99)00100-X; Xu M Kontinen VK Panula P Kalso E Effects of (1DMe)NPYF, a synthetic neuropeptide FF analogue, in different pain models Peptides 1999 20 1211 1217 10499424 10.1016/S0196-9781(99)00100-X ||| ref 46 = [46]; PMID 12507715; doi:10.1016/S0304-3959(02)00333-0; Cahill CM Morinville A Hoffert C O'Donnell D Beaudet A Up-regulation and trafficking of delta opioid receptor in a model of chronic inflammation: implications for pain control Pain 2003 101 199 208 12; details: cited from earlier work; for effect on NPFF-induced analgesia / antinociception: opioid antagonist against intrathecal NPFF; for antagonism of analgesic effects of NPFF in vivo: opioid antagonists
[1] = target: T1, c-MYC-tagged human delta opioid receptor (Homo sapiens, UniProt P41143); assay: FACS analysis of agonist-induced DOR internalization (cell surface fluorescence)
Protocol: The CHO/MYChDOR cells were collected and suspended into the culture medium. The cells were treated with drugs in suspension as for the immunocytochemistry for the indicated times. After the incubation, the membrane trafficking was stopped by rapidly chilling the cells on ice and removing the medium. After this the cells were kept on ice. The cells were washed with PBS and stained in PBS-suspension with rabbit anti-MYC antibody (1 % normal goat serum (v/v) used to block unspecific binding), followed by the detection with a fluorescent secondary antibody. Dead cells were detected with isopropidium iodide. Cells were analyzed with FACScan flow cytometer (Becton Dickinson and Co., Mountain View, CA, USA). Data from 10000 cells were collected for each run and each sample was run in replicate or triplicate.
The internalization percent was calculated as: [drawing 1] where F(ctrl) in the fluorescence of the time-matched control cells and the F(sample) is the fluorescence measured from the drug-treated cells.
10000 cells/sample were analyzed with FACS.

[2] = target: T1, c-MYC-tagged human delta opioid receptor; format: cell-based
[3] = target: T1, c-MYC-tagged human delta opioid receptor; assay: Tb-DeltI binding on CHO/MYChDOR whole cells, effect of (1DMe)NPYF (time-resolved fluorometry)
Protocol: 6 μg of crude membrane preparations or whole cells (25 000 cell/well) that were plated one day before experiment and fixed with 4 % PFA for 10 min at room temperature, were used in the saturation binding experiments. The whole cell assays were carried out on normal cell culture plates and the assays with membrane preparations on special filter plates (Pall Life Sciences). The cells or membranes were incubated in 50 mM Tris/HCl pH 7.5; 2.5 mM MgCl2; 60 mM NaCl; 25 μM EDTA, 0.2 % BSA (w/v) for 90 min at room temperature with 0.01 – 781.25 nM Tb-DeltI in the presence or absence of 1 or 5 μM unlabeled DeltI. To study the effect of (1DMe)NPYF on the Tb-DeltI binding, 1–1000 nM (1DMe)NPYF was added together with unlabeled DeltI. After the incubation the unbound Tb-DeltI was removed by washing the plates four times with 50 mM Tris/HCl pH 7.5; 2.5 mM MgCl2. Vacuum pump system was used to wash the filter plates. Since the chelate-bound Tb-ion is nonfluorescent, it needed to be released from the complex. In order to release Tb-ion from the chelate 150 μl Delfia enhancement solution was added to the wells and the plates were incubated on a shaker for 15 min. Thereafter, 40 μl Delfia enhancer that changes the pH of the assay solution appropriate for Tb-fluorescence was added, and the plates were further incubated for 5 min on a shaker. The time-resolved fluorescence of the released Tb-ion was measured with Victor^2 Multilabel counter (Perkin Elemer Wallac, Turku, Finland).

[4] = test system: MAP-kinase p42MAPK (ERK2); assay: Phosphorylation of MAPK (ERK2) in CHO/MYChDOR cells, immunoblot; format: cell-based, Chinese hamster
Protocol: 25000 cells/well were seeded onto 24-well plates and incubated o/n. The medium was replaced with serum-free medium and the cells were incubated for one hour at 37°C. […] The reaction was stopped by removing the medium and adding modified RIPA-lysis buffer (PBS, pH 7.6; 1 % Nonidet P-40 (v/v); 0.5 % sodium deoxycholate (w/v); 0.1 % SDS (w/v), 10 mM NaF; 0.4 mM PMSF, 10 μg/ml aprotinin, 10 μg/ml leupeptin, 2 mM […]; 0.2 mM bestatin). Cells were lysed on ice for 15 min and the lysates were collected. The protein content was determined with the Bradford method.
10 μg of protein was analyzed on 10 % SDS-PAGE gel and the gel was blotted onto nitrocellulose membrane. […] After washes, the membrane was detected with the ECL-protocol. The band intensities were measured with AlphaDigiDoc1000 documentation system (Alpha Innotech, San Leandro, CA, USA). […]
Figure 6 DOR agonist induced phosphorylation of the MAP-kinase, ERK2, is increased by (1DMe)NPYF. A. Total cell lysates (10 μg protein per lane) were detected with phosphoERK2 and total ERK2 specific antibodies. […] B. The band intensities of phosphoERK2 were quantified and they are presented as relative band intensities with respect to the total ERK2. […] The statistical significance between time-points and treatments was analyzed with two-way Anova with Bonferroni's post-test, n = 5. […]

NPFF1R = details: cited from earlier work
From the text: (§1) At the physiological level NPFF seems to have both a direct analgesic effect and a modulatory effect on the opioid system. Some of the effects may be mediated via the NPFF receptors as two such receptors, NPFF1R and NPFF2R, have been identified. […] Also the other RFamide peptides bind to the NPFF receptors with varying affinities, and therefore the exact nature of the receptor-ligand interactions between RFamides and their receptors is still unclear.

NPFF2R = details: cited from earlier work
From the text: as §1

rat pituitary cells = details: cited from earlier work
From the text: The dose-dependence of NPFF-agonist on the BMAX was bell-shaped. This could imply that the NPFF-analogue affects only some conformations of the receptor. […] However, the receptor involved in the prolactin release mechanism was not characterized.

presynaptic DOR = details: pontine parabrachial nucleus, via presynaptic DOR; cited from earlier work
From the text: (§2) The interaction between NPFF and opioid system in pain and analgesia seems to be complex in nature and the molecular mechanisms behind the observed physiological effects are not known. […] In the rat spinal cord, the highest NPFF-like immunoreactivity is found in the superficial layers of the dorsal h ...

opioid receptor subtypes = details: any opioid receptor subtype; cited from earlier work
From the text: as §2

neuropathic rats = details: periaqueductal grey; cited from earlier work
From the text: as §2

[5] = test system: opioid withdrawal syndrome; details: supraspinal administration; cited from earlier work
From the text: as §2

[6] = 100 nM (1DMe)NPYF alone, 5, 10, 30 min, 37°C

T1 sequence (P41143 whole entry): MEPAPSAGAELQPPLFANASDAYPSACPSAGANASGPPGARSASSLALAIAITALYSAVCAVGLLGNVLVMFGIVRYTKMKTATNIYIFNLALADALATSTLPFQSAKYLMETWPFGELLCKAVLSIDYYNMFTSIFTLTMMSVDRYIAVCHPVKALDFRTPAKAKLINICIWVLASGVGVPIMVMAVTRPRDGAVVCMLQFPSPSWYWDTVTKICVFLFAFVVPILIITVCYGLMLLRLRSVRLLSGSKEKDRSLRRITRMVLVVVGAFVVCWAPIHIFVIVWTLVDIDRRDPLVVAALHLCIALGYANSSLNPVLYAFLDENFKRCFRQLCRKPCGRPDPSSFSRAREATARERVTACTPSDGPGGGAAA

Compound: C=CCN1CC[C@]23c4c5ccc(O)c4O[C@H]2C(=O)CC[C@@]3(O)[C@H]1C5 [naloxone]
- effect on NPFF-induced analgesia / antinociception (pain): reduced
- antagonism of analgesic effects of NPFF in vivo (pain): blocked

Compound: Oc1ccc2c3c1O[C@H]1c4[nH]c5ccccc5c4C[C@@]4(O)[C@@H](C2)N(CC2CC2)CC[C@]314 [naltrindole]
- block of receptor activation by DOR agonists and of enhanced activation by co-applied (1DMe)NPYF ([1]; DOR antagonist with DOR agonists ± (1DMe)NPYF): could completely block
- effect on NPFF-induced analgesia / antinociception (pain): inhibits the NPFF-induced antinociception; also recorded: reduced
- antagonism of analgesic effects of NPFF in vivo (pain): blocked

Compound: D-YL-(NMe)-FQPQRF-NH2 [(1DMe)NPYF]
- effect on DPDPE-induced cAMP inhibition [2]: had hardly an effect on the cAMP accumulation
- effect on DPDPE-induced inhibition of cAMP accumulation [2]: enhanced the DOR agonist induced inhibition of cAMP accumulation significantly at all tested DPDPE concentrations
- effect on the amount of cAMP [2]: did not have any significant effect on the amount of cAMP
- enhancement of inhibitory effect of DOR agonists on cAMP accumulation [2]: able to enhance the inhibitory effect of other DOR agonists, e.g. DeltI
- effect on the BMAX for Tb-DeltI ([3]; 1 nM and 10 nM (1DMe)NPYF, whole cells): significantly decreased the BMAX
- effect on the KD for Tb-DeltI ([3]; 1–1000 nM (1DMe)NPYF, whole cells): only modestly affected
- dose-dependence of effect on the BMAX ([3]; 1–1000 nM, whole cells): bell-shaped
- effect on the BMAX for Tb-DeltI ([3]; higher concentrations of (1DMe)NPYF, whole cells): affected the BMAX only modestly
- displacement of Tb-DeltI at micromolar concentration ([3]; only micromolar concentration, whole cell and membrane assays): could displace Tb-DeltI in whole cell and membrane binding assays to some extent
- activation of ERK2 [4, 6]: did not result in the activation of ERK2
- effect on ERK2 activation induced by DPDPE ([4]; 100 nM (1DMe)NPYF together with 100 nM DPDPE): significantly promoted the activation induced by DPDPE
- DOR internalization [1, 6]: did not induce receptor internalization at any time-point tested
- cell surface fluorescence ([1]; 100 nM (1DMe)NPYF alone, 30 min, vs time-matched control cells): somewhat higher fluorescence

Compound: FLFQPQRFamide [NPFF, RFamide peptide originally isolated from bovine brain]
- binding to NPFF1R (NPFF1R): binds to both of them
- binding to NPFF2R (NPFF2R): binds to both of them
- effect on prolactin release, dose-response (rat pituitary cells): bell-shaped dose-response curve
- effect on opiate-induced analgesia (pain): potentiated
- analgesia, intrathecal (pain; intrathecal): long-lasting analgesia
- effect on opioid antinociception (pain; supraspinal administration): attenuates opioid antinociception
- modulation of synaptic transmission (presynaptic DOR): modulates synaptic transmission through interaction with presynaptic DOR
- displacement of opioid receptor ligands (opioid receptor subtypes): does not displace opioid receptor ligands from any of the opioid receptor subtypes
- attenuation of tactile allodynia (neuropathic rats): selective attenuation of tactile allodynia
- opioid withdrawal syndrome [5]: precipitates opioid withdrawal syndrome

Compound: Y-D-AFDVVG-NH2 [DeltI, peptidic DOR agonist]
- enhanced antinociceptive activity correlated with receptor recruitment (pain; recruitment of spinal opioid receptors to plasma membrane, inflammation): enhanced antinociceptive activity of DeltI is correlated with the recruitment of spinal opioid receptors from intracellular stores to the plasma membrane
